Test results taken from US20090012005A1, “Use of an angiotensin IV antagonist to treat insulin resistance or cardiovascular risk related to metabolic syndrome” (priority 2007, published 2009).
Entries after “also recorded” stand apart in the source; their conditions may differ. Square brackets hold non-standard residues; d marks the D form. Peptide text beside a SMILES is read from it. * marks the point of attachment. ξ: configuration not given here. β3hF = N[C@H](CC(=O)O)Cc1ccccc1; Ile(3ξ) = CCC(C)[C@H](N)C(=O)O; X1 = CC(C)C(CN)C(=O)*

Tests used:
[1] = system: angiotensinogen (AGT) and AT1 receptor (AT1R) expression in human vascular smooth muscle cells; assay: expression of angiotensinogen and AT1 receptors (mRNA) in primary human vascular smooth muscle cell cultures; format: cell-based; conditions: for inhibition of the angiotensinogen (and AT1 receptor) response to angiotensin IV: 100 nM angiotensin IV, antagonist at increasing concentrations, given 30 minutes before angiotensin IV (FIG. 3)
Protocol: This effect may be measured by analyzing messenger RNA as well as the corresponding proteins.
Inhibition of these effects of angiotensin IV by candidate compounds is the foundation of the model. These cellular models encompass a screening approach as well as quantitative approaches. Angiotensin IV is used at a concentration of 100 nM, a concentration at which its binding to angiotensin II receptors is minimal.
(§1) The inventors used primary cultures and vascular muscle smooth cell lines of various species (man, rat, mouse); all cell lines in which angiotensin IV exerts stimulatory effects on the expression of angiotensinogen and angiotensin II AT1 receptors may be used. The confluent smooth muscle cells are placed in a serum-free culture medium (human vascular smooth muscle medium 2 from Promocell, or any other equivalent medium), in order to block their multiplication and to synchronize them. After 24 hours of habituation in this culture medium, the medium is replaced by fresh medium to which the various test substances are added according to the order adapted to the experimental protocol. Measurements are taken after 24 hours of treatment in the case of analyses of angiotensinogen and AT1 receptor expression. The antagonists are applied to the cells 30 minutes before angiotensin IV. The cells are exposed to 100 μU/ml of insulin to measure glucose uptake.
The results are the mean of pairs of measurements taken in human vascular smooth muscle cells from six patients.

[2] = system: human vascular smooth muscle cells; assay: insulin-induced 3H-deoxyglucose uptake in human vascular smooth muscle cells; format: cell-based; conditions: for amplitude of maximum effect / lower plateau: inhibition of insulin-induced deoxyglucose uptake, 4-parameter logistic regression (FIG. 4); for reversion of the inhibition by angiotensin IV of insulin-induced glucose uptake: antagonist pretreatment, cells from five patients (FIG. 5)
Description: This effect by angiotensin IV is not blocked by angiotensin II AT1 receptor antagonists or by angiotensin II AT2 receptor antagonists.
Angiotensin IV inhibits insulin-induced glucose uptake in vascular smooth muscle cells by a mechanism independent of angiotensin II AT1 and AT2 receptors.
as §1
The results are the mean of pairs of measurements taken in cells from six patients.

Molecule: CC[C@H](C)[C@H](NC(=O)[C@H](Cc1ccc(O)cc1)NC(=O)[C@@H](N)C(C)C)C(=O)N[C@@H](Cc1cnc[nH]1)C(=O)N1CCC[C@H]1C(=O)N[C@@H](Cc1ccccc1)C(=O)O [angiotensin IV, Val-Tyr-Ile-His-Pro-Phe]
- effect on IRAP expression [1]: reduces
- effect on expression of angiotensinogen and AT1 receptors ([1]; independent of AT1 receptors (FIG. 2)): stimulating
- amplitude of maximum effect [2]: 58.0%±2.3%
- lower plateau [2]: 41.9±1.4

Molecule: CCC(C)[C@H](NC(=O)[C@H](Cc1ccc(O)cc1)NC(=O)C(CN)C(C)C)C(=O)N[C@@H](Cc1c[nH]cn1)C(=O)N1CCC[C@H]1C(=O)N[C@H](CC(=O)O)Cc1ccccc1 (stereo partly drawn) [compound AL-11, H-β^2hVal-Tyr-Ile-His-Pro-β^3hPhe-OH] (X1-Y[Ile(3ξ)]HP[β3hF]-OH)
- inhibition of the angiotensinogen (and AT1 receptor) response to angiotensin IV [1]: inhibition; also recorded: much more powerful in preventing the response
- reversion of the inhibition by angiotensin IV of insulin-induced glucose uptake [2]: reversion

Molecule: CC(C)[C@H](N)CN[C@@H](Cc1ccc(O)cc1)C(=O)N[C@H](CN[C@@H](Cc1c[nH]cn1)C(=O)N1CCC[C@H]1C(=O)N[C@@H](Cc1ccccc1)C(=O)O)C(C)C [divalinal, N-Val-(CH2—NH)-Tyr-Val(CH2—NH)-His-Pro-Phe]
- inhibition of the angiotensinogen (and AT1 receptor) response to angiotensin IV [1]: inhibition; also recorded: weaker depressor of the maximum response
- reversion of the inhibition by angiotensin IV of insulin-induced glucose uptake [2]: reversion

Molecule: Angiotensin II: angiotensin peptide hormone acting on AT1 and AT2 receptors, used for comparison (DRVYIHPF; Angiotensin-2; UniProt P01019 25-32, looked up)
- amplitude of maximum effect [2]: 42.2%±6.4%
- lower plateau [2]: 56.3±4.5

Molecule: LVV-hemorphin-7
- inhibition of the angiotensinogen (and AT1 receptor) response to angiotensin IV [1]: no activity
- reversion of the inhibition by angiotensin IV of insulin-induced glucose uptake [2]: no activity
